The values below are quoted from earlier work in US20090092668A1, “ACETAMINOPHEN FORMULATION FOR JOINT PAIN RELIEF” (priority 2006, published 2009).

SMILES strings stand for the structures.

The conditions of data set [1]: one subject.

For the compound `N[C@H]1C(O)O[C@H](CO)[C@@H](O)[C@@H]1O` (stereo partly drawn) [glucosamine], under “of the absorbed glucosamine”, the “excreted as exhaled carbon dioxide” value is 65%, the “excreted in the urine” value is 25% and the “remaining in the tissues” value is listed as 10%. Further, the “absorbed from the small intestine” value (sulfate form) is “over 90%”.
Regarding `CS(C)(=O)=O` [MSM, Methylsulfonylmethane], the pain status entry in data set [1] (¼-½ tsp. daily for about 16 months) is “substantially pain-free life”. Also, the pain relief entry in data set [1] (½ tsp. daily in diet, by the end of the second week) was “almost total pain relief”.
